Experimental data reported in patent US20100105655A1, “NOVEL COMPOUNDS 515” (ASTRAZENECA AB, priority 2008, published 2010).

Assays:
human IGF1R = biological target: T1, human IGF1R (Homo sapiens, UniProt P08069); assay: Inhibition of insulin-like growth factor-1 receptor phosphorylation (immunofluorescence end point cell assay, R+ cells); format: cell-based; details: R+ cells stimulated with 30 nM IGF1
T1 construct: expressed in transfected cells; host or cells: R+ cells (R- mouse fibroblasts transfected with human IGF1R)
Method: This immunofluorescence end point cell assay measures the ability of a test compound to reduce the measured levels of IGF phosphorylation after IGF1 stimulation in R^+ cells. R^+ cells are derived by transfection of R^− mouse fibroblast cells with human IGF1R. R^+ cells are routinely cultured in DMEM growth medium (Gibco BRL, 41966) containing 2 mM L-Glutamine (Invitrogen Code no. 25030-024) and 10% (v/v) foetal bovine serum (FBS)) in a 5% CO2 air incubator at 37° C.
To undertake the assay, the R^+ cells are seeded at 5×10^3 cells/well in DMEM plus 1% foetal calf serum, 1% L-glutamine in 96-well black Packard View plates (PerkinElmer 6005182) and incubated at 37° C. (+5% CO2) in a humidified incubator. […]
Following the compound treatment, the R^+ cells are stimulated with a final concentration of 30 nM IGF1 (Gropep IM001) for 20 minutes at 37° C. […] Additionally, in-house antibodies raised against phospho IGF1R were also used at a suitable titre determined for each batch. […]
The Green Fluorescent phospho IGF1R-associated signal in each well was measured using an Acumen Explorer HTS Reader (TTP Labtech Ltd., Cambridge). Phospho IGF1R-associated fluorescence emission can be detected at 530 nm following excitation at 488 nm. […] These fluorescent objects can be quantified and provide a measure of the phospho IGF1R levels in cells. […]

IGFR kinase = biological target: T2, IGFR kinase (Homo sapiens, UniProt P08069); assay: Enzyme assay (c), IGFR kinase, Caliper LabChip; format: biochemical; details: 30 nM IGFR kinase, 6 uM ATP, 3 uM peptide mix; read-out: IGFR IC50
T2 construct: purchased Millipore
T2 sequence (P08069 31-1367): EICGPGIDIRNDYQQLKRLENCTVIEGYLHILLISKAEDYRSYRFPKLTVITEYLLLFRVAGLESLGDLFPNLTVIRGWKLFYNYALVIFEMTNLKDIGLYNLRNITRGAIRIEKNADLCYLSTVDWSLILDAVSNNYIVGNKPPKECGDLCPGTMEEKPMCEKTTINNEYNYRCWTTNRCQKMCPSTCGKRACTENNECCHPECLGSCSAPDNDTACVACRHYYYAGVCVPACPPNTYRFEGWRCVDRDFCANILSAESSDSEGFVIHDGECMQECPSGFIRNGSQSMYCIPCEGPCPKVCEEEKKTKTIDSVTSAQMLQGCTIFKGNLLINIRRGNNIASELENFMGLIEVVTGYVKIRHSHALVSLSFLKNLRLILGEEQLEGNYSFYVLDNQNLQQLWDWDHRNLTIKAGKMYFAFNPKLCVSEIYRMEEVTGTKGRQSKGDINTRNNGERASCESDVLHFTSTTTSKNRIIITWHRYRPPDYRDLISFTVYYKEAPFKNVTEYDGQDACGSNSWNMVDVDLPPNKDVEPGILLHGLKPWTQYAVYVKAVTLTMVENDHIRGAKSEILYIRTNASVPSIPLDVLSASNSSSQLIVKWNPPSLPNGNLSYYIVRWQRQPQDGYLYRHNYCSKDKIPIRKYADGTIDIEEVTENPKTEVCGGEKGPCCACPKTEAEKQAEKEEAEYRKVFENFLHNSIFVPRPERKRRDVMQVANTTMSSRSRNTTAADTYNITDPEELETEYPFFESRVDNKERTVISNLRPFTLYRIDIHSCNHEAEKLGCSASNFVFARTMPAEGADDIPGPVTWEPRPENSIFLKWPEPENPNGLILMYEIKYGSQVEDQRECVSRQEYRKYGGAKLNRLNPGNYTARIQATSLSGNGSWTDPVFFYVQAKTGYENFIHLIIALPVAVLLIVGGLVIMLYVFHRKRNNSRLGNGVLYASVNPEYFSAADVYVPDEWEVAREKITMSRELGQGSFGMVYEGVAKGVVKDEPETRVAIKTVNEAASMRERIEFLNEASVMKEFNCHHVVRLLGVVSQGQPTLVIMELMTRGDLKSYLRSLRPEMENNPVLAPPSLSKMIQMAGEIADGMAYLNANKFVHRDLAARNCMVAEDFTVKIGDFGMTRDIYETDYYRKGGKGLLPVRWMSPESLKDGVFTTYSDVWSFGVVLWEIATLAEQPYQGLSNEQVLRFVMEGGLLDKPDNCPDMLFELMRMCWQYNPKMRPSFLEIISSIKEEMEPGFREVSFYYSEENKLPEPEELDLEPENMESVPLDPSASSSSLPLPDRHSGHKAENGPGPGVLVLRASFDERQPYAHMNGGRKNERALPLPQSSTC

T1 sequence (P08069 31-1367): as above

COc1cc(N2CC(C)NC(C)C2)ccc1Nc1ncc(Cl)c(-c2cnc3ccccn23)n1 (centres unmarked) [5-chloro-N-[4-(3,5-dimethylpiperazin-1-yl)-2-methoxy-phenyl]-4-imidazo[1,2-a]pyridin-3-yl-pyrimidin-2-amine]
IC50 (human IGF1R): 4 nM

COc1cc(N2CCN(CCO)CC2)ccc1Nc1ncc(F)c(-c2cnc3ccccn23)n1 [Example 81, 2-[4-[4-[(5-fluoro-4-imidazo[1,2-a]pyridin-3-yl-pyrimidin-2-yl)amino]-3-methoxy-phenyl]piperazin-1-yl]ethanol]
IC50 (IGFR kinase): 30 nM
melting point: ~ 171.3 °C

COc1cc(N2CCN(C(=O)CN3CCOCC3)CC2)ccc1Nc1ncc(Cl)c(-c2cnc3ccccn23)n1 [Example 275, 1-[4-[4-[(5-chloro-4-imidazo[1,2-a]pyridin-3-yl-pyrimidin-2-yl)amino]-3-methoxy-phenyl]piperazin-1-yl]-2-morpholino-ethanone]
IC50 (IGFR kinase): 9 nM

COc1cc(C(CO)CNC(C)=O)ccc1Nc1ncc(Cl)c(-c2cnc3ccccn23)n1 (centres unmarked) [Example 276, N-[2-[4-[(5-chloro-4-imidazo[1,2-a]pyridin-3-yl-pyrimidin-2-yl)amino]-3-methoxy-phenyl]-3-hydroxy-propyl]acetamide]
IC50 (IGFR kinase): 15 nM

COc1cc(C2CN(C(C)=O)C2)ccc1Nc1ncc(Cl)c(-c2cnc3ccccn23)n1 [Example 277, 1-[3-[4-[(5-chloro-4-imidazo[1,2-a]pyridin-3-yl-pyrimidin-2-yl)amino]-3-methoxy-phenyl]azetidin-1-yl]ethanone]
IC50 (IGFR kinase): 16 nM

COc1cc(N2CCN(C(C)=O)CC2)c(C)cc1Nc1ncc(Cl)c(-c2cnc3ccccn23)n1 [Example 278, 1-[4-[4-[(5-chloro-4-imidazo[1,2-a]pyridin-3-yl-pyrimidin-2-yl)amino]-5-methoxy-2-methyl-phenyl]piperazin-1-yl]ethanone]
IC50 (IGFR kinase): 8 nM

COc1cc(N2CCN(CCO)CC2)c(C)cc1Nc1ncc(Cl)c(-c2cnc3ccccn23)n1 [Example 279, 2-[4-[4-[(5-chloro-4-imidazo[1,2-a]pyridin-3-yl-pyrimidin-2-yl)amino]-5-methoxy-2-methyl-phenyl]piperazin-1-yl]ethanol]
IC50 (IGFR kinase): 8 nM
